In the assay the target is T1, human FSH receptor (Homo sapiens, UniProt P23945).
T1 construct: expressed in transfected cells; host or cells: Chinese Hamster Ovary (CHO) cells, stably transfected; cotransfected with CRE/promoter-firefly luciferase reporter
T1 sequence (P23945 18-695): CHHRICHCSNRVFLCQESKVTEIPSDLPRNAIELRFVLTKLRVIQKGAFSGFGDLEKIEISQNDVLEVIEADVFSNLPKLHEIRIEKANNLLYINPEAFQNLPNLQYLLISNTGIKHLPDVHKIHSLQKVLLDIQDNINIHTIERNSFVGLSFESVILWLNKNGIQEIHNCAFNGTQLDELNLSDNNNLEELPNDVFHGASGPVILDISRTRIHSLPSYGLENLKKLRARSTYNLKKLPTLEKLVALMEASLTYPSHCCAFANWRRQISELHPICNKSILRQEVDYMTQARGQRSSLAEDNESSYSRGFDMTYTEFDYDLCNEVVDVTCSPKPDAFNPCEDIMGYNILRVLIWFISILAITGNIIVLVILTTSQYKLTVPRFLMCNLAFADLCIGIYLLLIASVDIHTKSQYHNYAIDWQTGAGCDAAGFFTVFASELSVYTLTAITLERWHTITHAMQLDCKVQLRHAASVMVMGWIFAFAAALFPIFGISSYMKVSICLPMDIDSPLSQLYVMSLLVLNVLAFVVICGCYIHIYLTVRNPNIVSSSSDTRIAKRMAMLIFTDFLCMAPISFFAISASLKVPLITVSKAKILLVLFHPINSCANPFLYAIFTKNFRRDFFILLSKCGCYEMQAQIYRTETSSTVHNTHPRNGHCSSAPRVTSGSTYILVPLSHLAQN
Briefly: Agonistic activity at the human FSH receptor expressed in CHO cells (CRE-luciferase reporter). The format is cell-based. Particulars: CHO cells stably transfected with the human FSH receptor and a CRE/luciferase reporter, 4 hours of incubation, pEC50 is -logEC50; for EC50: read-out: hFSHRago (CHO luc) pEC50 (converted). As to the method:
For the determination a software program such as MathIQ (version 2.0, ID Business Solutions Limited) can be used.
Agonistic activity of compounds at the human FSH receptor expressed in CHO cells
Agonistic activity of the compounds at the human FSH receptor was determined in Chinese Hamster Ovary (CHO) cells stably transfected with the human FSH receptor and cotransfected with a cAMP responsive element (CRE)/promotor directing the expression of a firefly luciferase reporter gene. […] The final concentration of DMSO was 1%. After 4 hours of incubation, plates were allowed to adjust to room temperature for 1 hour. Then, Luclite (PerkinElmer) solution was added to the wells and cells were allowed to lyse for at least 1 hour at room temperature. Subsequently, luciferase activity was measured in a luminescence counter. The signal is expressed as counts per second (cps).

For the compound `COc1cc2c(cc1[C@@H](O)[C@H](O)CO)-c1c(-c3cccs3)c3c(n1CC2)C(=O)N(C(C)(C)C)CCCC3` [21i], the EC50 was 5.25 nM.

With `COc1cc2c(cc1-c1cnccn1)-c1c(-c3cccs3)c3c(n1CC2)C(=O)N(C(C)(C)C)CCC3` [4i, 9-tert-butyl-2-(pyrazin-2-yl)-3-methoxy-13-(2-thienyl)-5,6,9,10,11,12-hexahydro-8H-azepino[4',3':4,5]pyrrolo[2,1-a]isoquinolin-8-one], the EC50 was 13.8 nM.

For `COc1cc2c(cc1-c1cnn(C)c1)-c1c(-c3cccs3)c3c(n1CC2)C(=O)N(C(C)(C)C)CCC3` [4h], the EC50 is 64.6 nM.

`COc1cc2c(cc1-c1cccnc1)-c1c(-c3cccs3)c3c(n1CC2)C(=O)N(C(C)(C)C)CCSC3` [9k, 9-tert-butyl-3-methoxy-2-pyridin-3-yl-14-(2-thienyl)-5,6,10,11,13,13a-hexahydro-7aH-[1,4]thiazocino[7',6':4,5]pyrrolo[2,1-a]isoquinolin-8(9H)-one]: the EC50 is 0.316 nM.

On to “9-tert-butyl-3-methoxy-2-pyridin-3-yl-14-(1,3-thiazol-5-yl)-5,6,10,11,12,13-hexahydroazocino[4',3':4,5]pyrrolo[2,1-a]isoquinolin-8(9H)-one [11j]”, for which the “hFSHRago (CHO luc) pEC50” value turned out to be 8.51.

For the origin of these results see patent EP2459560B1, “RING-ANNULATED DIHYDROPYRROLO[2,L-A]ISOQUINOLINES” (Merck Sharp & Dohme B.V., priority 2009, dated 2011).
